Reference: patent US10829501B2 (BRISTOL-MYERS SQUIBB COMPANY, priority 2016, dated 2020)
pIC50: −log10 of the molar value. Where a name gives a salt, the structure may show the parent alone.

Target: ROCK2 (Homo sapiens, UniProt O75116)
Assay: ROCK2 kinase inhibition assay (LABCHIP 3000 Reader, FITC peptide substrate);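 note: rho kinase reaction read by separating phosphorylated from unphosphorylated peptide on chip, with inhibition of kinase activity computed per concentration across a dose-response series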
Settings: not given

Chain of ROCK2 (O75116 whole entry, species assumed): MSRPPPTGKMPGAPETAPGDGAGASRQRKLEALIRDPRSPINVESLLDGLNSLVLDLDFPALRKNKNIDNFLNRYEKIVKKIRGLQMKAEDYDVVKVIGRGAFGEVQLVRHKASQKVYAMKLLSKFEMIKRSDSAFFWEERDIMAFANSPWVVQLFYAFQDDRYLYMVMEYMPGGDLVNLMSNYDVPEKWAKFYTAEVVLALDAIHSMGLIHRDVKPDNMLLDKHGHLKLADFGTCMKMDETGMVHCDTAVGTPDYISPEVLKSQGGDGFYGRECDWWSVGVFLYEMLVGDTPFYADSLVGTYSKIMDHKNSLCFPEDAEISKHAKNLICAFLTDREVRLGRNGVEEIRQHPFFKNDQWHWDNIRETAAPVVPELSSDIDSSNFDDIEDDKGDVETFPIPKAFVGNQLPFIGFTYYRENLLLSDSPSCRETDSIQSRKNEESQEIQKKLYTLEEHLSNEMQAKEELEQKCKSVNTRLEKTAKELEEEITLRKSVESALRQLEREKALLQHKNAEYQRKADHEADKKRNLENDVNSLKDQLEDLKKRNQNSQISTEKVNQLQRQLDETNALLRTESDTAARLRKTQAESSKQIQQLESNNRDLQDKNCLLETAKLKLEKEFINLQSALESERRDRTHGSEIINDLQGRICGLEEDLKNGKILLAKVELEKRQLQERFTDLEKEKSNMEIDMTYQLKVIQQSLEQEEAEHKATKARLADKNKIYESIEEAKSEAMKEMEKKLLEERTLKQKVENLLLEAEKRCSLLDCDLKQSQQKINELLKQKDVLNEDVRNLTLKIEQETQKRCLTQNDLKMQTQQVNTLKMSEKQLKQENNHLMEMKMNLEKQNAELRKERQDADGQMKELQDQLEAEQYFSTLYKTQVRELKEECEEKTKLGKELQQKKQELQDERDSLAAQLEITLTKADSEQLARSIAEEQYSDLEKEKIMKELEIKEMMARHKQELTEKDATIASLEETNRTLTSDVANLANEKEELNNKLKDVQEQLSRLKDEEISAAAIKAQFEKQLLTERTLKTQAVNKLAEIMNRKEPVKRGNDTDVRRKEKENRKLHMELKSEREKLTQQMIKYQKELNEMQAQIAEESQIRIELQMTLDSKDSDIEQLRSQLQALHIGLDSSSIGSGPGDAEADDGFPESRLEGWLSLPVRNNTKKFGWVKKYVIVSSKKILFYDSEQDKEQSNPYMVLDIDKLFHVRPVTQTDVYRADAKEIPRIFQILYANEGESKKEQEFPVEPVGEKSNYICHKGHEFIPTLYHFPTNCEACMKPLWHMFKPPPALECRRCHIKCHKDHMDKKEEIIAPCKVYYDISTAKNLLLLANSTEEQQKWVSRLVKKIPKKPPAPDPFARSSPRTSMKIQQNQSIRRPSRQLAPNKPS

Row | SMILES | pIC50
1 | NC(=O)c1cccnc1OC1CC2(CC(NC(=O)c3cn(-c4ccccc4)nn3)C2)C1 [Example 389, N-[(aR)2-({6-(1-phenyl-1H-1,2,3-triazole)-4-carboxamido]spiro[3.3]heptan-2-yl}oxy)nicotinamide] | 6.60 to 7.30
2 | NC(=O)c1cccnc1OC1CC2(CC(NC(=O)c3c[nH]c(-c4ccccc4)n3)C2)C1 [Example 390, N-[(aR)2-({6-(2-phenyl-1H-imidazole)-4-carboxamido]spiro[3.3]heptan-2-yl}oxy)nicotinamide] | 5.60 to 6.60
3 | Cc1c(C(=O)NC2CC3(C2)CC(Oc2ncccc2C(N)=O)C3)cnn1-c1ccc(C#N)c(F)c1 (stereo not drawn) [Example 391] | 6.60 to 7.30
4 | Cc1nc(C(=O)NC2CC3(C2)CC(Oc2ncccc2C(N)=O)C3)c(C)n1-c1ccccc1 (stereo not drawn) [Example 392] | 6.60 to 7.30
5 | NC(=O)c1cccnc1OC1CC2(CC(NC(=O)c3cnn(-c4cccc(Cl)c4F)c3)C2)C1 (stereo not drawn) [Example 393] | 7.30 to 8.30
6 | NC(=O)c1cccnc1OC1CC2(CC(NC(=O)c3cnn(-c4cccc(Cl)c4)c3)C2)C1 (stereo not drawn) [Example 394] | 7.30 to 8.30
7 | COc1cccc(-n2cc(C(=O)NC3CC4(C3)CC(Oc3ncccc3C(N)=O)C4)cn2)c1 (stereo not drawn) [Example 395] | 7.30 to 8.30
8 | Cn1nc(C(=O)NC2CC3(C2)CC(Oc2ncccc2C(N)=O)C3)cc1-c1ccccc1 (stereo not drawn) [Example 396] | 7.30 to 8.30
9 | NC(=O)c1cccnc1OC1CC2(CC(NC(=O)c3cnn(-c4ccccc4Cl)c3)C2)C1 (stereo not drawn) [Example 397] | 7.30 to 8.30
10 | COc1ccccc1-n1cc(C(=O)NC2CC3(C2)CC(Oc2ncccc2C(N)=O)C3)cn1 (stereo not drawn) [Example 398] | 7.30 to 8.30
11 | Cc1c(C(=O)NC2CC3(C2)CC(Oc2ncccc2C(N)=O)C3)cnn1-c1cccc(C#N)c1 (stereo not drawn) [Example 399] | 6.60 to 7.30

Other lines, results leading:

Row | pIC50 | SMILES
12 | > 8.30 | [H][C@]1(Oc2ncccc2C(N)=O)C[C@@]2(C[C@H](NC(=O)c3nn(C(C)(C)C#N)c4cc(-c5cnn(C)c5)ccc34)C2)C1 (stereo partly drawn) [Example 406, N-((aR)-6-((3-carbamoylpyridin-2-yl)oxy)spiro[3.3]heptan-2-yl)-1-(2-cyanopropan-2-yl)-6-(1-methyl-1H-pyrazol-4-yl)-1H-indazole-3-carboxamide, TFA]
13 | > 8.30 | [H][C@]1(Oc2ncccc2C(N)=O)C[C@@]2(C[C@H](NC(=O)c3nn(C(C)(C)C#N)c4cc(-c5cnn(C(F)F)c5)ccc34)C2)C1 (stereo partly drawn) [Example 407, N-((aR)-6-((3-carbamoylpyridin-2-yl)oxy)spiro[3.3]heptan-2-yl)-1-(2-cyanopropan-2-yl)-6-(1-(difluoromethyl)-1H-pyrazol-4-yl)-1H-indazole-3-carboxamide, TFA]
14 | 7.30 to 8.30 | [H][C@]1(Oc2ncccc2C(N)=O)C[C@@]2(C[C@H](NC(=O)c3nn(C(C)(C)C(N)=O)c4cc(-c5cnn(C)c5)ccc34)C2)C1 (stereo partly drawn) [Example 408, 1-(1-amino-2-methyl-1-oxopropan-2-yl)-N-((aR)-6-((3-carbamoylpyridin-2-yl)oxy)spiro[3.3]heptan-2-yl)-6-(1-methyl-1H-pyrazol-4-yl)-1H-indazole-3-carboxamide, TFA]
15 | > 8.30 | CC(C)(C(N)=O)n1nc(C(=O)N[C@H]2CC3(C2)C[C@H](Oc2ncccc2C(N)=O)C3)c2ccc(-c3cnn(C(F)F)c3)cc21 (stereo partly drawn) [Example 409, 1-(1-amino-2-methyl-1-oxopropan-2-yl)-N-((aR)-6-((3-carbamoylpyridin-2-yl)oxy)spiro[3.3]heptan-2-yl)-6-(1-(difluoromethyl)-1H-pyrazol-4-yl)-1H-indazole-3-carboxamide, TFA]
16 | 7.30 to 8.30 | [H][C@]1(Oc2ncccc2C(N)=O)C[C@@]2(C[C@H](NC(=O)c3nn(C(C)(C)C(N)=O)c4cc(OCCC(F)(F)F)ccc34)C2)C1 (stereo partly drawn) [Example 410, 1-(1-amino-2-methyl-1-oxopropan-2-yl)-N-((aR)-6-((3-carbamoylpyridin-2-yl)oxy)spiro[3.3]heptan-2-yl)-6-(3,3,3-trifluoropropoxy)-1H-indazole-3-carboxamide, TFA]
17 | 7.30 to 8.30 | [H][C@]1(Oc2ncccc2C(N)=O)C[C@@]2(C[C@H](NC(=O)c3nn(C(C)(C)C#N)c4cc(OCCC(F)(F)F)ccc34)C2)C1 (stereo partly drawn) [Example 411, N-((aR)-6-((3-carbamoylpyridin-2-yl)oxy)spiro[3.3]heptan-2-yl)-1-(2-cyanopropan-2-yl)-6-(3,3,3-trifluoropropoxy)-1H-indazole-3-carboxamide, TFA]
18 | 7.30 to 8.30 | CC(C)(O)COc1ccc2c(C(=O)N[C@H]3CC4(C3)C[C@H](Oc3ncccc3C(N)=O)C4)nn(C(C)(C)C(N)=O)c2c1 (stereo partly drawn) [Example 412, 1-(1-amino-2-methyl-1-oxopropan-2-yl)-N-((aR)-6-((3-carbamoylpyridin-2-yl)oxy)spiro[3.3]heptan-2-yl)-6-(2-hydroxy-2-methylpropoxy)-1H-indazole-3-carboxamide, TFA]

Same assay, conditions: read-out: ROCK2 Activity (ROCK2 IC50); 5 μM ATP, 1.5 μM peptide substrate, pH 7.5

Row | SMILES | pIC50
19 | COc1ccc2c(c1)CCc1c(C(=O)NC3CC4(C3)CC(Oc3ncccc3C(N)=O)C4)nn(C)c1-2 [Example 380, N-((aR)-6-((3-carbamoylpyridin-2-yl)oxy)spiro[3.3]heptan-2-yl)-7-methoxy-1-methyl-4,5-dihydro-1H-benzo[g]indazole-3-carboxamide] | 7.30 to 8.30
20 | COc1ccc2c(c1)CCc1c-2nn(C)c1C(=O)NC1CC2(C1)CC(Oc1ncccc1C(N)=O)C2 [Example 381, N-((aR)-6-((3-carbamoylpyridin-2-yl)oxy)spiro[3.3]heptan-2-yl)-7-methoxy-2-methyl-4,5-dihydro-2H-benzo[g]indazole-3-carboxamide] | 5.60 to 6.60
21 | Cc1nn(Cc2ccc(F)cc2)cc1C(=O)NC1CC2(C1)CC(Oc1ncccc1C(N)=O)C2 [Example 382, N-[(aR)2-[(6-{1-[(4-fluorophenyl)methyl]-3-methyl-1H-pyrazole-4-amido}spiro[3.3]heptan-2-yl)oxy]pyridine-3-carboxamide 1 trifluoroacetic acid salt] | 7.30 to 8.30
22 | Cc1c(C(=O)N[C@H]2CC3(C2)C[C@H](Oc2ncccc2C(N)=O)C3)cnn1Cc1ccc(F)cc1 (stereo partly drawn) [Example 383, N-[(aR)2-[(6-{1-[(4-fluorophenyl)methyl]-5-methyl-1H-pyrazole-4-amido}spiro[3.3]heptan-2-yl)oxy]pyridine-3-carboxamide 1 trifluoroacetic acid salt] | 7.30 to 8.30
23 | Cc1c(C(=O)NC2CC3(C2)CC(Oc2ncccc2C(N)=O)C3)cnn1-c1ccc(Cl)cc1 [Example 384, N-[(aR)2-({6-[1-(4-chlorophenyl)-5-methyl-1H-pyrazole-4-amido]spiro[3.3]heptan-2-yl}oxy)pyridine-3-carboxamid 1 trifluoroacetic acid salt] | 7.30 to 8.30
24 | Cc1c(C(=O)NC2CC3(C2)CC(Oc2ncccc2C(N)=O)C3)cnn1-c1ccc(C#N)cc1 [Example 385, N-[(aR)2-({6-[1-(4-cyanophenyl)-5-methyl-1H-pyrazole-4-amido]spiro[3.3]heplan-2-yl}oxy)pyridine-3-carboxamide1 trifluoroacetic acid salt] | 7.30 to 8.30
25 | Cc1c(C(=O)NC2CC3(C2)CC(Oc2ncccc2C(N)=O)C3)cnn1-c1ccc(OC(F)(F)F)cc1 [Example 386, N-[(aR)2-[(6-{5-methyl-1-[4-(trifluoromethoxy)phenyl]-1H-pyrazole-4-amido}spiro[3.3]heptan-2-yl)oxy]pyridine-3-carboxamide 1 trifluoroacetic acid salt] | 7.30 to 8.30
26 | Cc1c(C(=O)NC2CC3(C2)CC(Oc2ncccc2C(N)=O)C3)cnn1-c1ccc(S(C)(=O)=O)cc1 [Example 387, N-[(aR)2-({6-[1-(4-methanesulfonylphenyl)-5-methyl-1H-pyrazole-4-amido]spiro[3.3]heptan-2-yl}oxy)pyridine-3-carboxamide 1 trifluoroacetic acid salt] | 7.30 to 8.30
27 | Cc1c(C(=O)N[C@H]2CC3(C2)C[C@H](Oc2ncccc2C(N)=O)C3)cnn1-c1ccc(C#N)cc1F (stereo partly drawn) [Example 388, N-[(aR)2-({6-[1-(4-cyano-2-fluorophenyl)-5-methyl-1H-pyrazole-4-amido]spiro[3.3]heptan-2-yl}oxy)pyridine-3-carboxamide 1 trifluoroacetic acid salt] | 6.60 to 7.30
28 | COc1ccc(-n2ncc(C(=O)N[C@H]3CC4(C3)C[C@H](Oc3ncccc3C(N)=O)C4)c2C)cn1 (stereo partly drawn) [Example 400] | 7.30 to 8.30
29 | CC(C)(C#N)n1nc(C(=O)NC2CC3(C2)CC(Oc2ncccc2C(N)=O)C3)c2ccc(F)cc21 [Example 401, N-((aR)-6-((3-carbamoylpyridin-2-yl)oxy)spiro[3.3]heptan-2-yl)-1-(2-cyanopropan-2-yl)-6-fluoro-1H-indazole-3-carboxamide, TFA] | > 8.30
30 | CC(C)(C(N)=O)n1nc(C(=O)NC2CC3(C2)CC(Oc2ncccc2C(N)=O)C3)c2ccc(F)cc21 [Example 402, 1-(1-amino-2-methyl-1-oxopropan-2-yl)-N-((aR)-6-((3-carbamoylpyridin-2-yl)oxy)spiro[3.3]heptan-2-yl)-6-fluoro-1H-indazole-3-carboxamide, TFA] | 7.30 to 8.30
31 | CC(C)(C#N)n1nc(C(=O)NC2CC3(C2)CC(Oc2ncccc2C(N)=O)C3)c2ccc(Br)cc21 [Example 403, 6-bromo-N-((aR)-6-((3-carbamoylpyridin-2-yl)oxy)spiro[3.3]heptan-2-yl)-1-(2-cyanopropan-2-yl)-1H-indazole-3-carboxamide, TFA] | 7.30 to 8.30
32 | Cn1cc(-c2ccc3c(C(=O)NC4CC5(C4)CC(Oc4ncccc4C(N)=O)C5)nn(CC4(O)CC(F)(F)C4)c3c2)cn1 [Example 404, N-((aR)-6-((3-carbamoylpyridin-2-yl)oxy)spiro[3.3]heptan-2-yl)-1-((3,3-difluoro-1-hydroxycyclobutyl)methyl)-6-(1-methyl-1H-pyrazol-4-yl)-1H-indazole-3-carboxamide, TFA] | 7.30 to 8.30
33 | Cn1cc(-c2ccc3c(C(=O)NC4CC5(C4)CC(Oc4ncccc4C(N)=O)C5)nn(CC4(O)CCC4)c3c2)cn1 [Example 405, N-((aR)-6-((3-carbamoylpyridin-2-yl)oxy)spiro[3.3]heptan-2-yl)-1-((1-hydroxycyclobutyl)methyl)-6-(1-methyl-1H-pyrazol-4-yl)-1H-indazole-3-carboxamide, TFA] | > 8.30
